Converted amounts (≈) assume the structure as drawn.
Experiments:
[1] = Inhibition of pig brain phospholipase; set-up: species or system Sus scrofa
[2] = Cytotoxicity against human KATO III cells; format: functional, cell-based, KATO III cell
Protease = Protease (Human immunodeficiency virus 1, UniProt Q9YQ12); assay: Inhibition of HIV1 protease
Arthrobacter citreus = assay: Antimicrobial activity against Arthrobacter citreus; format: functional
Bacillus subtilis = assay: Antimicrobial activity against Bacillus subtilis; format: functional
[3] = tested on: Clavibacter michiganensis subsp. insidiosus; assay: Antimicrobial activity against Corynebacterium insidiosum; format: functional
Kocuria rosea = assay: Antimicrobial activity against Micrococcus roseus; format: functional
Micrococcus luteus = assay: Antimicrobial activity against Sarcina lutea; format: functional
HL-60 = assay: Cytotoxicity against human HL60 cells
L1210 = assay: Cytotoxicity against mouse L1210 cells; format: functional, cell-based
[4] = Inhibition of lipid peroxidation; format: functional
[5] = Antiplatelet activity assessed as inhibition of ADP-stimulated bovine platelet aggregation; format: functional; settings: Bos taurus
[6] = Antiplatelet activity assessed as inhibition of ADP-stimulated human platelet aggregation; format: functional
[7] = target: Transient receptor potential cation channel subfamily V member 1 (Homo sapiens, UniProt Q8NER1); assay: Inhibition of Vanilloid receptor 1
Sequence of Transient receptor potential cation channel subfamily V member 1 (Q8NER1 whole entry): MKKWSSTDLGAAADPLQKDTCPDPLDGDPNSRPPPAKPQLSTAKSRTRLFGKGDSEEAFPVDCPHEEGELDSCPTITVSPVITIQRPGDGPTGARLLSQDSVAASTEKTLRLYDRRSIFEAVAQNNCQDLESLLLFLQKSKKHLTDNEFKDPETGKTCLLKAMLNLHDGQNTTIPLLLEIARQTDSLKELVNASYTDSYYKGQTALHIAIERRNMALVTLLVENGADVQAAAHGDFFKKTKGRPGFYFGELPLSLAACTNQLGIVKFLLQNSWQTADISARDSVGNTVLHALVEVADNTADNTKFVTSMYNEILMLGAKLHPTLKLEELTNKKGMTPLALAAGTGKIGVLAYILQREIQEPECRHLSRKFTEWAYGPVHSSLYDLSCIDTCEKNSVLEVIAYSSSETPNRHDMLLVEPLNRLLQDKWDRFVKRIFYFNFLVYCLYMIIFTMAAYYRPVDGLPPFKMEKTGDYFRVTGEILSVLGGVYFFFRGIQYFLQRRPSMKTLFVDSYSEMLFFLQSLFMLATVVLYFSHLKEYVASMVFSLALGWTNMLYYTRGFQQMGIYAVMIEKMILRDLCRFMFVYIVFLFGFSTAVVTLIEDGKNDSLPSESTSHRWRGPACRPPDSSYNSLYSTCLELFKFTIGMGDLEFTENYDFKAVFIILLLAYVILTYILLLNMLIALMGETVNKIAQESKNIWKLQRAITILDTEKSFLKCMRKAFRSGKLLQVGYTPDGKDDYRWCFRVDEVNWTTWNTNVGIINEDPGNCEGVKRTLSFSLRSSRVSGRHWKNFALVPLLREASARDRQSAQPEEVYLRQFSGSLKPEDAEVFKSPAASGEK

[8] = Cytotoxicity against mouse Meth-A cells; format: functional; settings: read-out: ED50 (the source's name)
CCRF S-180 = assay: Cytotoxicity against mouse S180 cells; format: functional; settings: read-out: ED50 (the source's name)
T47D = assay: Cytotoxicity against human T47D cells; format: functional; settings: read-out: ED50 (the source's name)
[9] = Cytotoxicity against mouse LLC cells; format: functional; settings: Lewis lung carcinoma, read-out: ED50 (the source's name)
[10] = Inhibition of NF-kappaB by secreted alkaline phosphatase based reporter gene assay
L929 = assay: Cytotoxicity against mouse L929 cells; format: cell-based
Liver microsomes = assay: Antioxidant activity in rat liver microsomes assessed as inhibition of lipid peroxidation; format: functional, Microsome
Staphylococcus aureus = assay: Antimicrobial activity against Staphylococcus aureus; format: functional
Micrococcus = assay: Antimicrobial activity against Micrococcus flavus; format: functional
Bacillus anthracis = assay: Antimicrobial activity against Bacillus anthracis; format: functional
HeLa = assay: Cytotoxicity against human HeLa cells; format: functional, cell-based
MDCK = assay: Cytotoxicity against MDCK cells; format: cell-based; settings: Canis lupus familiaris
[11] = Cytotoxicity against human FL cells; format: functional, cell-based
Bacillus cereus = assay: Antimicrobial activity against Bacillus cereus; format: functional
Aspergillus niger = assay: Antimicrobial activity against Aspergillus niger; format: functional
Aspergillus flavus = assay: Antimicrobial activity against Aspergillus flavus; format: functional
Amylomyces rouxii = assay: Antimicrobial activity against Mucor rouxii; format: functional
Leuconostoc = assay: Antimicrobial activity against Leuconostoc plantarum; format: functional
[12] = Inhibition of almond beta-glucosidase; set-up: species or system Prunus dulcis
[13] = Inhibition of DNA synthesis in human ECA cells assessed as blockade of thymidine incorporation; format: functional, cell-based
[14] = Toxicity in mouse at 225 mg/kg; format: organism-based; set-up: dose 225 mg/kg; settings: in vivo
Alternaria = assay: Antimicrobial activity against Alternaria; format: functional

Sequence of Protease (Q9YQ12 whole entry): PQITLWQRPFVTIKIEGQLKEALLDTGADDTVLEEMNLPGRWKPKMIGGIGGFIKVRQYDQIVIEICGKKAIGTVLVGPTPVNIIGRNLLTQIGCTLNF

Work on `CC(=O)O[C@@H]1[C@H](O[C@H](CO)[C@H](O)[C@@H](O)[C@@H](OC(C)=O)C(=O)O[C@H](C)CCCCCCCCCCCCCCCc2cccc(O)c2C(=O)O)O[C@H](CO)[C@@H](O)[C@@H]1O` [CALOPOROSIDE] yielded a Ki [1] of 10 µg/mL (≈ 12.2 µM).
For `COc1cc(CCCO[C@@H]2O[C@H](CO)[C@@H](O)[C@H](O)[C@H]2O)cc2cc(-c3ccc4c(c3)OCO4)oc12` [EGONOL GLUCOSIDE], the IC50 [2] was 24.9 µg/mL (≈ 51 µM).
Work on `C/C(=C\CC[C@@H](C)[C@H]1CC(=O)[C@@]2(C)C3=C(C(=O)C[C@]12C)[C@@]1(C)CC[C@H](O)C(C)(C)[C@@H]1C[C@@H]3O)C(=O)O` [GANODERIC ACID BETA] yielded an IC50 (Protease) of 20 µM.
`CC(O)CCCCCC/C=C\CCCCCCCc1cccc(O)c1C(=O)O` (stereo unspecified) [MERULINIC ACID B] showed an MIC (Arthrobacter citreus) of 0.4 µg/mL (≈ 1.02 µM), an MIC (Bacillus subtilis) of 0.4 µg/mL (≈ 1.02 µM) and an MIC [3] of 0.4 µg/mL (≈ 1.02 µM). For the same molecule, the MIC (Kocuria rosea) was 0.4 µg/mL (≈ 1.02 µM) and the MIC (Micrococcus luteus) was 0.4 µg/mL (≈ 1.02 µM).
Molecule `C=C(C)[C@@H]1CCC2=C(CC[C@]3(C)[C@@H]([C@@H](CCC=C(C)C)C(=O)O)[C@H](O)C[C@@]23C)[C@@]1(C)CCC(=O)O` [PORICOIC ACID G] has a GI50 (HL-60) of 0.0393 µM.
For `CC(C)C(C)C[C@@H](O)[C@](C)(O)[C@H]1CC[C@@]2(O)C3=CC(=O)[C@@H]4C[C@@H](O)[C@@H](O)C[C@]4(C)[C@H]3CC[C@]12C` (stereo partly specified) [POLYPORUSTERONE A], the IC50 (L1210) was 10 µg/mL (≈ 20.9 µM).
Molecule `CCCCCCCC/C=C\CCCCCCCc1cc(O)cc(O)c1C(=O)O` [MERULINIC ACID A] has an MIC (Arthrobacter citreus) of 0.4 µg/mL (≈ 1.02 µM), an MIC (Bacillus subtilis) of 0.4 µg/mL (≈ 1.02 µM) and an MIC [3] of 0.4 µg/mL (≈ 1.02 µM). It also gave an MIC (Kocuria rosea) of 0.4 µg/mL (≈ 1.02 µM) and an MIC (Micrococcus luteus) of 0.4 µg/mL (≈ 1.02 µM).
`COC1=C(c2ccccc2)C(=O)C2=C(C1=O)c1ccccc1CO2` [BETULINAN B] showed an IC50 [4] of 2.88 µg/mL (≈ 9.05 µM).
`CC(C)[C@@H](C)C[C@@H](O)[C@@H](C)[C@H]1CC[C@@]2(O)C3=CC(=O)[C@@H]4C[C@@H](O)[C@@H](O)C[C@]4(C)[C@H]3CC[C@]12C` [POLYPORUSTERONE F] showed an IC50 (L1210) of 10 µg/mL (≈ 21.6 µM).
Molecule `CC1(C)CCC(=O)[C@@H]2[C@@H](C=O)C(C=O)=CC[C@@H]21` [PANUDIAL] has an IC30 [5] of 2.5 µg/mL (≈ 10.7 µM) and an IC30 [6] of 6 µg/mL (≈ 25.6 µM).
`C=C(C[C@@H](O)[C@](C)(O)[C@H]1CC[C@@]2(O)C3=CC(=O)[C@@H]4C[C@@H](O)[C@@H](O)C[C@]4(C)[C@H]3CC[C@]12C)C(C)C` [POLYPORUSTERONE B] showed an IC50 (L1210) of 10 µg/mL (≈ 21 µM).
`OCCCc1ccc2oc(-c3ccc4c(c3)OCO4)cc2c1` [DEMETHOXYEGONOL] showed an IC50 [2] of 27.5 µg/mL (≈ 92.8 µM).
Work on `Cc1cc(O)c(C[C@@H]2[C@@]3(C)CCCC(C)(C)[C@@H]3CC[C@@]2(C)O)c(O)c1` [ALBACONOL] yielded an IC50 [7] of 5 µM.
`C=C(C[C@@H](O)[C@@H](C)[C@H]1CC[C@@]2(O)C3=CC(=O)[C@@H]4C[C@@H](O)[C@@H](O)C[C@]4(C)[C@H]3CC[C@]12C)C(C)C` [POLYPORUSTERONE G] gave an IC50 (L1210) of 10 µg/mL (≈ 21.7 µM).
Work on `COC1=C(c2ccccc2)C(=O)C(OC)=C(c2ccccc2)C1=O` [BETULINAN A] yielded an IC50 [4] of 0.46 µg/mL (≈ 1.44 µM).
`C=C(CC[C@@H](C)[C@H]1CC[C@@]2(C)C3=C(CC[C@]12C)[C@@]1(C)CC[C@H](O)C(C)(C)C1CC3=O)C(C)C=O` (stereo partly specified) [LUCIALDEHYDE C] showed an EC50 [8] of 3.8 µg/mL (≈ 8.11 µM), an EC50 (CCRF S-180) of 7.1 µg/mL (≈ 15.1 µM) and an EC50 (T47D) of 4.7 µg/mL (≈ 10 µM). It also gave an EC50 [9] of 10.7 µg/mL (≈ 22.8 µM).
With `CC(C)=C[C@H](O)C1=C[C@@H](O)[C@@H]2O[C@@H]2C1=O` [PANEPOXYDONE] the IC50 [10] was 1.5 µg/mL (≈ 7.14 µM).
`COc1cc(CCCO)cc2cc(-c3ccc4c(c3)OCO4)oc12` [EGONOL] showed an IC50 [2] of 28.8 µg/mL (≈ 88.2 µM).
`CC(C)[C@@H](C)[C@@H]1O[C@H]1[C@@H](C)[C@H]1CC[C@@]2(O)C3=CC(=O)[C@@H]4C[C@@H](O)[C@@H](O)C[C@]4(C)[C@H]3CC[C@]12C` [POLYPORUSTERONE E] showed an IC50 (L1210) of 10 µg/mL (≈ 21.7 µM).
With `C=C1[C@@H](O)[C@H]2O[C@]23C[C@H]2CC(C)(C)[C@H](O)[C@H]2[C@]13C` [HYPNOPHILIN 1] the IC50 (L929) was 0.9 µg/mL (≈ 3.6 µM).
For `CC1(C)C=Cc2ccc(O[C@@H]3O[C@H](CO)[C@@H](O)[C@H]3O)cc2O1` [STERIN A], the IC50 (Liver microsomes) was 8 µg/mL (≈ 25.9 µM).
For `C=C([C@H](O)C[C@H](C)C(C)C)[C@H]1CC[C@@]2(O)C3=CC(=O)[C@@H]4C[C@@H](O)[C@@H](O)C[C@]4(C)[C@H]3CC[C@]12C` [POLYPORUSTERONE D], the IC50 (L1210) was 10 µg/mL (≈ 21.7 µM).
`CC1(C)C[C@H]2[C@@H]([C@H]1O)[C@@]1(C)[C@@]3(O[C@@H]3C(=O)[C@@]13CO3)[C@H]2O` [CORIOLIN] gave an MIC (Staphylococcus aureus) of 12.5 µg/mL (≈ 44.6 µM), an MIC (Micrococcus) of 12.5 µg/mL (≈ 44.6 µM) and an MIC (Bacillus anthracis) of 12.5 µg/mL (≈ 44.6 µM).
Work on `O=Cc1ccc(O)c(O)c1C=O` [FOMECIN B] yielded an IC50 (HeLa) of 20 µg/mL (≈ 120 µM), an IC50 (MDCK) of 14 µg/mL (≈ 84.3 µM) and an IC50 [11] of 17 µg/mL (≈ 102 µM).
`C=C1C(=O)[C@H]2O[C@]23C[C@H]2CC(C)(C)[C@H](O)[C@H]2[C@]13C` [HYPNOPHILIN] showed an MIC (Bacillus cereus) of 1 µg/mL (≈ 4.03 µM), an MIC (Aspergillus niger) of 1 µg/mL (≈ 4.03 µM) and an MIC (Aspergillus flavus) of 1 µg/mL (≈ 4.03 µM). The MIC (Amylomyces rouxii) was 1 µg/mL (≈ 4.03 µM).
`CC(C)C(C)C1O[C@H]1[C@](C)(O)[C@H]1CC[C@@]2(O)C3=CC(=O)[C@@H]4C[C@@H](O)[C@@H](O)C[C@]4(C)[C@H]3CC[C@]12C` (stereo partly specified) [POLYPORUSTERONE C] showed an IC50 (L1210) of 10 µg/mL (≈ 21 µM).
`Nc1c(C(=O)O)c2nc3c(CO)cccc3oc-2cc1=O` [CINNABARIN] gave an MIC (Bacillus cereus) of 62.5 µg/mL (≈ 218 µM) and an MIC (Leuconostoc) of 62.5 µg/mL (≈ 218 µM).
`CCCCCCCC/C=C\CCCCCCCc1cccc(O)c1C(=O)O` [MERULINIC ACID C] showed an MIC (Arthrobacter citreus) of 0.4 µg/mL (≈ 1.07 µM), an MIC (Bacillus subtilis) of 0.4 µg/mL (≈ 1.07 µM) and an MIC [3] of 0.4 µg/mL (≈ 1.07 µM). For the same molecule, the MIC (Kocuria rosea) was 0.4 µg/mL (≈ 1.07 µM) and the MIC (Micrococcus luteus) was 0.4 µg/mL (≈ 1.07 µM).
`C=C1C(=O)[C@H]2O[C@]23C[C@H]2CC(C)(C)C[C@H]2[C@]13C` [DESOXYHYPNOPHILIN] showed an MIC (Bacillus cereus) of 1 µg/mL (≈ 4.3 µM), an MIC (Aspergillus niger) of 1 µg/mL (≈ 4.3 µM) and an MIC (Aspergillus flavus) of 1 µg/mL (≈ 4.3 µM). The MIC (Amylomyces rouxii) was 1 µg/mL (≈ 4.3 µM) and the IC50 (L929) was 2.4 µg/mL (≈ 10.3 µM).
`OC[C@@H]1[C@@H](O)[C@H](O)[C@@H](O)[C@@H]2O[C@H]12` [CYCLOPHELLITOL] gave an IC50 [12] of 0.8 µg/mL (≈ 4.54 µM).
Molecule `C=C1C(=O)[C@H](OC(C)=O)/C=C(\C)C(=O)[C@H](O)[C@@H]2[C@@H]1CC2(C)C` [NAEMATOLON] has an IC50 [13] of 2 µg/mL (≈ 6.53 µM) and an LD50 [14] of 225 mg/kg.
For `Cc1oc(=O)c2c(O)cccc2c1C` [OOSPOLACTONE], the MIC (Alternaria) was 12.5 µg/mL (≈ 65.7 µM).
